Results published in patent US20250163104A1, “MACROCYCLIC IMMUNOMODULATORS” (priority 2021, published 2025).
*1 amine or outer side, *2 acyl side, *3 side chain or, on linkers, in order; H or OH if unused. Where a SMILES comes first, the peptide text is derived from it. Bridges are numbered along the chain shown (N, C = ends). [ ]: non-standard residue; d: D form. The star is where a group is joined. ξ: configuration not given here. Bip(3'-COOH) = N[C@@H](Cc1ccc(-c2cccc(C(=O)O)c2)cc1)C(=O)O; X10 = CCc1ccccc1-c1ccc(C[C@H](N[*:1])C(=O)[*:2])cc1; Phe(3-CF3) = N[C@@H](Cc1cccc(C(F)(F)F)c1)C(=O)O; Ala(morpholin-4-yl) = N[C@@H](CN1CCOCC1)C(=O)O; Phe(4-COOH) = N[C@@H](Cc1ccc(C(=O)O)cc1)C(=O)O; Bip = N[C@@H](Cc1ccc(-c2ccccc2)cc1)C(=O)O; Phe(3-Cl) = N[C@@H](Cc1cccc(Cl)c1)C(=O)O; Phe(3-Me) = Cc1cccc(C[C@H](N)C(=O)O)c1; Val(3-OH) = CC(C)(O)[C@H](N)C(=O)O; 4Pal = N[C@@H](Cc1ccncc1)C(=O)O; 2Thi = N[C@@H](Cc1cccs1)C(=O)O; Aad = N[C@@H](CCCC(=O)O)C(=O)O; Cha = N[C@@H](CC1CCCCC1)C(=O)O; Cit = NC(=O)NCCC[C@H](N)C(=O)O; Ile(3ξ) = CCC(C)[C@H](N)C(=O)O; dCha = N[C@H](CC1CCCCC1)C(=O)O; Thr(3ξ) = CC(O)[C@H](N)C(=O)O; dDab = NCC[C@@H](N)C(=O)O; Carboxymethyl = O=C(O)C*; Orn = NCCC[C@H](N)C(=O)O; Dab = NCC[C@H](N)C(=O)O; Dap = NC[C@H](N)C(=O)O

target: T1, human PD-1 / PD-L1-Ig binding on Jurkat cell line over-expressing human PD-1 (Jurkat-PD-1) (Homo sapiens, UniProt Q15116); experiment: Jurkat-PD-1 Cell Binding High-Content Screening Assay (CBA); type: cell-based; settings: Jurkat-PD-1 cells, PE-labeled PD-L1-Ig 20 nM final; read-out: Jurkat HPD1_PDL1 IC50
T1 construct: expressed in transfected cells; host or cells: Jurkat
Procedure, shortened: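 Binding of fluorescent PD-L1-Ig (phycoerythrin linked via the Ig tag, 20 nM final) to PD-1-overexpressing Jurkat cells was imaged after a 2 h, 37° C compound pretreatment and 1 hour ligand incubation.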

T1 sequence (Q15116 25-288): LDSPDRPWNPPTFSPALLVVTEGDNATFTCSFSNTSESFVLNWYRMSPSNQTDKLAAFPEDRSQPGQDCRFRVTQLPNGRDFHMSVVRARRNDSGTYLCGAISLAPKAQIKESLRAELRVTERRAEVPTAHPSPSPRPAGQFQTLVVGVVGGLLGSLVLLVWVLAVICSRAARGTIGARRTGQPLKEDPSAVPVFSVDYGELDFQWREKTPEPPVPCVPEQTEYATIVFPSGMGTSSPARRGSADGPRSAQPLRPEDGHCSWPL

| SMILES | IC50 [nM] |
| --- | --- |
| CC(C)C[C@@H]1NC(=O)[C@H](CCN)NC(=O)[C@@H](CC(C)C)NC(=O)[C@H](CCCCN)NC(=O)[C@H](CCCNC(N)=O)NC(=O)[C@H](Cc2ccc(-c3ccccc3)cc2)NC(=O)[C@H](C(C)C)NC(=O)[C@H](Cc2c[nH]c3ccccc23)NC(=O)[C@H](CC(=O)O)NC(=O)[C@H](Cc2ccc(O)cc2)NC(=O)[C@H](CC(N)=O)NC(=O)CSC[C@@H](C(=O)NCC(N)=O)NC(=O)[C@H](CO)NC(=O)[C@H](C(C)C)NC1=O [Compound 1113] ({CH2CO}-NYDWV[Bip][Cit]K[dL][Dab]LVSCG-NH2; thioether N-14) | 15.6 |
| CC(C)[C@@H]1NC(=O)[C@H](Cc2c[nH]c3ccccc23)NC(=O)[C@H](CC(=O)O)NC(=O)[C@H](Cc2ccc(C(=O)O)cc2)NC(=O)[C@H](Cc2ccc(OCC(=O)O)cc2)NC(=O)CSC[C@@H](C(=O)N[C@@H](C)C(N)=O)NC(=O)[C@H]([C@@H](C)O)NC(=O)[C@H](C(C)C)NC(=O)[C@H](CC2CCCCC2)NC(=O)[C@H](CCN)NC(=O)[C@@H](CC2CCCCC2)NC(=O)[C@H](CCCN)NC(=O)[C@H](C(C)C)NC(=O)[C@H](Cc2ccc(-c3ccccc3)cc2)NC1=O [Compound 1634] ({CH2CO}-Y(Carboxymethyl)[Phe(4-COOH)]DWV[Bip]V[Orn][dCha][Dab][Cha]VTCA-NH2; thioether N-14) | 20.3 |
| CC(C)[C@@H]1NC(=O)[C@H](Cc2c[nH]c3ccccc23)NC(=O)[C@H](CC(=O)O)NC(=O)[C@H](Cc2ccc(OCC(=O)O)cc2)NC(=O)[C@H](CN)NC(=O)CSC[C@@H](C(=O)N[C@@H](C)C(N)=O)NC(=O)[C@H]([C@@H](C)O)NC(=O)[C@H](C(C)C)NC(=O)[C@H](CC2CCCCC2)NC(=O)[C@H](CCN)NC(=O)[C@@H](CC2CCCCC2)NC(=O)[C@H](CCCN)NC(=O)[C@H](C(C)C)NC(=O)[C@H](Cc2ccc(-c3ccccc3)cc2)NC1=O [Compound 1635] ({CH2CO}-[Dap]Y(Carboxymethyl)DWV[Bip]V[Orn][dCha][Dab][Cha]VTCA-NH2; thioether N-14) | 18.1 |
| CC(C)C[C@@H]1NC(=O)[C@H](Cc2c[nH]c3ccccc23)NC(=O)[C@H](CC(=O)O)NC(=O)[C@H](Cc2ccc(OCC(=O)O)cc2)NC(=O)[C@H](Cc2ccncc2)NC(=O)CSC[C@@H](C(=O)NCC(N)=O)NC(=O)[C@H](CO)NC(=O)[C@H](C(C)C)NC(=O)[C@H](CC2CCCCC2)NC(=O)[C@H](CCN)NC(=O)[C@@H](CC(C)C)NC(=O)[C@H](CCCN)NC(=O)[C@H](C(C)C)NC(=O)[C@H](Cc2ccc(-c3ccccc3)cc2)NC1=O [Compound 1402] ({CH2CO}-[4Pal]Y(Carboxymethyl)DWL[Bip]V[Orn][dL][Dab][Cha]VSCG-NH2; thioether N-14) | 9.9 |
| CC(C)C[C@H]1NC(=O)[C@H](CCCN)NC(=O)[C@H](CCC(=O)O)NC(=O)[C@H](Cc2ccc(-c3ccccc3)cc2)NC(=O)[C@H](C(C)C)NC(=O)[C@H](Cc2cccc(Cl)c2)NC(=O)[C@H](CC(=O)O)NC(=O)[C@H](Cc2ccc(OCC(=O)O)cc2)NC(=O)[C@H](Cc2ccccc2)NC(=O)CSC[C@@H](C(=O)N[C@@H](C)C(N)=O)NC(=O)[C@H]([C@@H](C)O)NC(=O)[C@H](C(C)C)NC(=O)[C@H](CC2CCCCC2)NC(=O)[C@H](CCN)NC1=O [Compound 1488] ({CH2CO}-FY(Carboxymethyl)D[Phe(3-Cl)]V[Bip]E[Orn][dL][Dab][Cha]VTCA-NH2; thioether N-14) | 10.6 |
| CC(C)C[C@@H]1NC(=O)[C@H](Cc2c[nH]c3ccccc23)NC(=O)[C@H](CC(=O)O)NC(=O)[C@H](Cc2ccncc2)NC(=O)[C@H](CN)NC(=O)CSC[C@@H](C(=O)NCC(N)=O)NC(=O)[C@H](CO)NC(=O)[C@H](C(C)C)NC(=O)[C@H](CC(C)C)NC(=O)[C@H](CC(N)=O)NC(=O)[C@@H](CC(C)C)NC(=O)[C@H](CN)NC(=O)[C@H](C(C)C)NC(=O)[C@H](Cc2ccc(-c3ccccc3)cc2)NC1=O [Compound 1277] ({CH2CO}-[Dap][4Pal]DWL[Bip]V[Dap][dL]NLVSCG-NH2; thioether N-14) | 8.6 |
| CC(C)C[C@@H]1NC(=O)[C@H](Cc2c[nH]c3ccccc23)NC(=O)[C@H](CC(=O)O)NC(=O)[C@H](Cc2ccc(O)cc2)NC(=O)[C@H](Cc2ccccc2)NC(=O)CSC[C@@H](C(=O)N[C@@H](C)C(N)=O)NC(=O)[C@H](CO)NC(=O)[C@H](C(C)C)NC(=O)[C@H](CC(C)C)NC(=O)[C@H](CC(N)=O)NC(=O)[C@@H](C)NC(=O)[C@@H](CCN)NC(=O)[C@H](C(C)C)NC(=O)[C@H](Cc2ccc(-c3ccccc3)cc2)NC1=O [Compound 2003] ({CH2CO}-FYDWL[Bip]V[dDab][dA]NLVSCA-NH2; thioether N-14) | 35 |

More lines, now with the values ahead:

| IC50 [nM] | SMILES |
| --- | --- |
| 5.7 | Cc1cccc(C[C@@H]2NC(=O)[C@H](CC(=O)O)NC(=O)[C@H](Cc3ccc(C(=O)O)cc3)NC(=O)[C@H](Cc3cccs3)NC(=O)CSC[C@@H](C(=O)N[C@@H](CCN)C(N)=O)NC(=O)[C@H](CO)NC(=O)[C@H](C(C)(C)O)NC(=O)[C@H](CC3CCCCC3)NC(=O)[C@H](CCN)NC(=O)[C@@H](CC(C)C)NC(=O)[C@H](CCCN)NC(=O)[C@H](Cc3ccc(OCC(=O)O)cc3)NC(=O)[C@H](Cc3ccc(-c4ccccc4)cc3)NC(=O)[C@H](Cc3ccc(C(=O)O)cc3)NC2=O)c1 [Compound 2625] ({CH2CO}-[2Thi][Phe(4-COOH)]D[Phe(3-Me)][Phe(4-COOH)][Bip]Y(Carboxymethyl)[Orn][dL][Dab][Cha][Val(3-OH)]SC[Dab]-NH2; thioether N-14) |
| 50.1 | CCC(C)[C@@H]1NC(=O)[C@H](Cc2ccc(-c3ccccc3)cc2)NC(=O)[C@H](C(C)C)NC(=O)[C@H](Cc2c[nH]c3ccccc23)NC(=O)[C@H](CC(=O)O)NC(=O)[C@H](Cc2ccc(-c3cccc(C(=O)O)c3)cc2)NC(=O)[C@H](Cc2ccccc2)NC(=O)CSC[C@@H](C(=O)N[C@@H](C)C(N)=O)NC(=O)[C@H]([C@@H](C)O)NC(=O)[C@H](C(C)C)NC(=O)[C@H](CC2CCCCC2)NC(=O)[C@H](CCN)NC(=O)[C@@H](CC(C)C)NC(=O)[C@H](CCCN)NC1=O (stereo partly drawn) [Compound 2218] ({CH2CO}-F[Bip(3'-COOH)]DWV[Bip][Ile(3ξ)][Orn][dL][Dab][Cha]VTCA-NH2; thioether N-14) |
| 12 | CC(C)C[C@H]1NC(=O)[C@H](CCCN)NC(=O)[C@H](CCC(=O)O)NC(=O)[C@H](Cc2ccc(-c3ccccc3)cc2)NC(=O)[C@H](C(C)C)NC(=O)[C@H](Cc2ccc(F)cc2)NC(=O)[C@H](CC(=O)O)NC(=O)[C@H](Cc2ccc(OCC(=O)O)cc2)NC(=O)[C@H](CN)NC(=O)CSC[C@@H](C(=O)N[C@@H](C)C(N)=O)NC(=O)[C@H]([C@@H](C)O)NC(=O)[C@H](C(C)C)NC(=O)[C@H](CC2CCCCC2)NC(=O)[C@H](CCN)NC1=O [Compound 2147] |
| 57.1 | CC(C)C[C@H]1NC(=O)[C@H](CCCN)NC(=O)[C@H](CCCNC(N)=O)NC(=O)[C@H](Cc2ccc(-c3ccccc3)cc2)NC(=O)[C@H](C(C)C)NC(=O)[C@H](Cc2c[nH]c3ccccc23)NC(=O)[C@H](CC(=O)O)NC(=O)[C@H](CCCC(=O)O)NC(=O)[C@H](CN)NC(=O)CSC[C@@H](C(=O)N[C@@H](C)C(N)=O)NC(=O)[C@H]([C@@H](C)O)NC(=O)[C@H](C(C)C)NC(=O)[C@H](CC2CCCCC2)NC(=O)[C@H](CCN)NC1=O [Compound 2125] ({CH2CO}-[Dap][Aad]DWV[Bip][Cit][Orn][dL][Dab][Cha]VTCA-NH2; thioether N-14) |
| 5.7 | CCc1ccccc1-c1ccc(C[C@@H]2NC(=O)[C@H](Cc3cccc(C(F)(F)F)c3)NC(=O)[C@H](CC(=O)O)NC(=O)[C@H](Cc3ccc(C(=O)O)cc3)NC(=O)[C@H](CN3CCOCC3)NC(=O)CSC[C@@H](C(=O)N[C@@H](CCN)C(N)=O)NC(=O)[C@H](CCC(=O)O)NC(=O)[C@H](C(C)C)NC(=O)[C@H](CC3CCCCC3)NC(=O)[C@H](CCN)NC(=O)[C@@H](CC(C)C)NC(=O)[C@H](CCCN)NC(=O)[C@H](Cc3ccc(C(=O)O)cc3)NC(=O)[C@H](Cc3ccc(-c4ccccc4)cc3)NC2=O)cc1 [Example 2734] ({CH2CO}-[Ala(morpholin-4-yl)][Phe(4-COOH)]D[Phe(3-CF3)][X10][Bip][Phe(4-COOH)][Orn][dL][Dab][Cha]VEC[Dab]-NH2; thioether N-14) |
| 8.1 | CC(C)C[C@H]1NC(=O)[C@H](CCCN)NC(=O)[C@H](CCC(=O)O)NC(=O)[C@H](Cc2ccc(-c3ccccc3)cc2)NC(=O)[C@H](C(C)C)NC(=O)[C@H](Cc2c[nH]c3ccccc23)NC(=O)[C@H](CC(=O)O)NC(=O)[C@H](Cc2ccc(C(=O)O)cc2)NC(=O)[C@H](CC(N)=O)NC(=O)CSC[C@@H](C(=O)N[C@@H](C)C(N)=O)NC(=O)[C@H]([C@@H](C)O)NC(=O)[C@H](C(C)C)NC(=O)[C@H](CC2CCCCC2)NC(=O)[C@H](CCN)NC1=O [Compound 2157] ({CH2CO}-N[Phe(4-COOH)]DWV[Bip]E[Orn][dL][Dab][Cha]VTCA-NH2; thioether N-14) |

same assay, conditions: read-out: Jurkat HPD1_PDL1 IC50; Jurkat-PD-1 cells, PE-labeled PD-L1-Ig 20 nM final

| SMILES | IC50 [nM] |
| --- | --- |
| CCC(C)[C@@H]1NC(=O)[C@H](CC2CCCCC2)NC(=O)[C@H](CCN)NC(=O)[C@@H](CC(C)C)NC(=O)[C@H](CCCN)NC(=O)[C@H](C(C)CC)NC(=O)[C@H](Cc2ccc(-c3ccccc3)cc2)NC(=O)[C@H](C(C)CC)NC(=O)[C@H](Cc2c[nH]c3ccccc23)NC(=O)[C@H](CC(=O)O)NC(=O)[C@H](Cc2ccc(OCC(=O)O)cc2)NC(=O)[C@H](C(C)O)NC(=O)CSC[C@@H](C(=O)N2CCC[C@H]2C(N)=O)NC(=O)[C@H](CO)NC1=O (stereo partly drawn) [Compound 2583] ({CH2CO}-[Thr(3ξ)]Y(Carboxymethyl)DW[Ile(3ξ)][Bip][Ile(3ξ)][Orn][dL][Dab][Cha][Ile(3ξ)]SCP-NH2; thioether N-14) | 122 |
